{"source": "ChEMBL document CHEMBL1201862", "about": "“PubChem BioAssay data set” (2004)", "assay_in_all_cases": "NCI-60 cell line screen, 48 h", "key": {"[1]": {"test_system": "786-0"}, "[2]": {"test_system": "A549"}, "[3]": {"test_system": "BT-549"}, "[4]": {"test_system": "CAKI-1"}, "[5]": {"test_system": "COLO 205"}, "[6]": {"test_system": "DU-145"}, "[7]": {"test_system": "HCC 2998"}, "[8]": {"test_system": "HCT-116"}, "[9]": {"test_system": "HCT-15"}, "[10]": {"test_system": "HL-60"}, "[11]": {"test_system": "HOP-92"}, "[12]": {"test_system": "HT-29"}, "[13]": {"test_system": "IGROV-1"}, "[14]": {"test_system": "KM12"}, "[15]": {"test_system": "M14"}, "[16]": {"test_system": "MCF7"}, "[17]": {"test_system": "MDA-MB-231"}, "[18]": {"test_system": "MDA-MB-435"}, "[19]": {"test_system": "MDA-N"}, "[20]": {"test_system": "Malme-3M"}, "[21]": {"test_system": "NCI-H226"}, "[22]": {"test_system": "NCI-H23"}, "[23]": {"test_system": "NCI-H522"}, "[24]": {"test_system": "NCI/ADR-RES"}, "[25]": {"test_system": "OVCAR-3"}, "[26]": {"test_system": "OVCAR-4"}, "[27]": {"test_system": "OVCAR-5"}, "[28]": {"test_system": "OVCAR-8"}, "[29]": {"test_system": "PC-3"}, "[30]": {"test_system": "RPMI-8226"}, "[31]": {"test_system": "RXF 393"}, "[32]": {"test_system": "SF-268"}, "[33]": {"test_system": "SF-295"}, "[34]": {"test_system": "SF-539"}, "[35]": {"test_system": "SK-MEL-28"}, "[36]": {"test_system": "SK-MEL-2"}, "[37]": {"test_system": "SK-MEL-5"}, "[38]": {"test_system": "SN12C"}, "[39]": {"test_system": "SNB-19"}, "[40]": {"test_system": "SNB-75"}, "[41]": {"test_system": "SR"}, "[42]": {"test_system": "SW-620"}, "[43]": {"test_system": "T47D"}, "[44]": {"test_system": "TK-10"}, "[45]": {"test_system": "U-251"}, "[46]": {"test_system": "UACC-257"}, "[47]": {"test_system": "UACC-62"}, "[48]": {"test_system": "UO-31"}, "[49]": {"test_system": "A498"}, "[50]": {"test_system": "ACHN"}, "[51]": {"test_system": "CCRF-CEM"}, "[52]": {"test_system": "EKVX"}, "[53]": {"test_system": "HOP-62"}, "[54]": {"test_system": "K562"}, "[55]": {"test_system": "LOX IMVI"}, "[56]": {"test_system": "MOLT-4"}, "[57]": {"test_system": "NCI-H460"}, "[58]": {"test_system": "SK-OV-3"}}, "note": "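Results reflect a 48-hour exposure of cells in 96-well plates to compound at five concentrations. Abbreviation: GI50, concentration required for 50% inhibition of growth.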 The source made the active and inactive calls. Rule as the data show it: active = GI50 up to about 1.1 µM and inactive = higher.", "data": [{"smiles": "ClCc1c(-c2ccccc2)nn(-c2ccccc2)c1CCl", "values": [{"measurement": "GI50", "setting": "[1]", "result": "9.59 µM (inactive)"}, {"measurement": "GI50", "setting": "[2]", "result": "16.5 µM (inactive)"}, {"measurement": "GI50", "setting": "[3]", "result": "> 10 µM (inactive)"}, {"measurement": "GI50", "setting": "[4]", "result": "1.83 µM (inactive)"}, {"measurement": "GI50", "setting": "[5]", "result": "5.94 µM (inactive)"}, {"measurement": "GI50", "setting": "[6]", "result": "14 µM (inactive)"}, {"measurement": "GI50", "setting": "[7]", "result": "13.9 µM (inactive)"}, {"measurement": "GI50", "setting": "[8]", "result": "8.09 µM (inactive)"}, {"measurement": "GI50", "setting": "[9]", "result": 12.2, "unit": "µM"}, {"measurement": "GI50", "setting": "[10]", "result": "3.14 µM (inactive)"}, {"measurement": "GI50", "setting": "[11]", "result": "2.81 µM (inactive)"}, {"measurement": "GI50", "setting": "[12]", "result": "9.75 µM (inactive)"}, {"measurement": "GI50", "setting": "[13]", "result": "6.79 µM (inactive)"}, {"measurement": "GI50", "setting": "[14]", "result": "13.2 µM (inactive)"}, {"measurement": "GI50", "setting": "[15]", "result": "15.4 µM (inactive)"}, {"measurement": "GI50", "setting": "[16]", "result": "8.2 µM (inactive)"}, {"measurement": "GI50", "setting": "[17]", "result": "> 10 µM (inactive)"}, {"measurement": "GI50", "setting": "[18]", "result": "1.78 µM (inactive)"}, {"measurement": "GI50", "setting": "[19]", "result": "10.7 µM (inactive)"}, {"measurement": "GI50", "setting": "[20]", "result": "16.4 µM (inactive)"}, {"measurement": "GI50", "setting": "[21]", "result": "26.5 µM (inactive)"}, {"measurement": "GI50", "setting": "[22]", "result": "15.6 µM (inactive)"}, {"measurement": "GI50", "setting": "[23]", "result": "0.165 µM (active)"}, {"measurement": "GI50", "setting": "[24]", "result": "29.4 µM (inactive)"}, {"measurement": "GI50", "setting": "[25]", "result": "13.5 µM (inactive)"}, {"measurement": "GI50", "setting": "[26]", "result": "1.65 µM (inactive)"}, {"measurement": "GI50", "setting": "[27]", "result": "19.4 µM (inactive)"}, {"measurement": "GI50", "setting": "[28]", "result": "14.2 µM (inactive)"}, {"measurement": "GI50", "setting": "[29]", "result": "9.71 µM (inactive)"}, {"measurement": "GI50", "setting": "[30]", "result": "2.26 µM (inactive)"}, {"measurement": "GI50", "setting": "[31]", "result": "12.4 µM (inactive)"}, {"measurement": "GI50", "setting": "[32]", "result": "16.6 µM (inactive)"}, {"measurement": "GI50", "setting": "[33]", "result": "17.2 µM (inactive)"}, {"measurement": "GI50", "setting": "[34]", "result": "16.1 µM (inactive)"}, {"measurement": "GI50", "setting": "[35]", "result": "15.6 µM (inactive)"}, {"measurement": "GI50", "setting": "[36]", "result": "13.2 µM (inactive)"}, {"measurement": "GI50", "setting": "[37]", "result": "12.4 µM (inactive)"}, {"measurement": "GI50", "setting": "[38]", "result": "19.4 µM (inactive)"}, {"measurement": "GI50", "setting": "[39]", "result": "18.6 µM (inactive)"}, {"measurement": "GI50", "setting": "[40]", "result": "4.18 µM (inactive)"}, {"measurement": "GI50", "setting": "[41]", "result": "2.33 µM (inactive)"}, {"measurement": "GI50", "setting": "[42]", "result": "2.03 µM (inactive)"}, {"measurement": "GI50", "setting": "[43]", "result": "2 µM (inactive)"}, {"measurement": "GI50", "setting": "[44]", "result": "14.6 µM (inactive)"}, {"measurement": "GI50", "setting": "[45]", "result": "12.3 µM (inactive)"}, {"measurement": "GI50", "setting": "[46]", "result": "15.3 µM (inactive)"}, {"measurement": "GI50", "setting": "[47]", "result": "7.18 µM (inactive)"}, {"measurement": "GI50", "setting": "[48]", "result": "20.1 µM (inactive)"}]}, {"smiles": "COCCCN(Cc1cc(OC)c(OC)c(OC)c1)C(=S)Nc1cccc(Cl)c1", "values": [{"measurement": "GI50", "setting": "[1]", "result": "26.5 µM (inactive)"}, {"measurement": "GI50", "setting": "[49]", "result": "28.3 µM (inactive)"}, {"measurement": "GI50", "setting": "[2]", "result": "29 µM (inactive)"}, {"measurement": "GI50", "setting": "[50]", "result": "28.6 µM (inactive)"}, {"measurement": "GI50", "setting": "[3]", "result": "22.6 µM (inactive)"}, {"measurement": "GI50", "setting": "[4]", "result": "21.5 µM (inactive)"}, {"measurement": "GI50", "setting": "[51]", "result": "25.3 µM (inactive)"}, {"measurement": "GI50", "setting": "[5]", "result": "33.8 µM (inactive)"}, {"measurement": "GI50", "setting": "[6]", "result": "37.7 µM (inactive)"}, {"measurement": "GI50", "setting": "[52]", "result": "12.3 µM (inactive)"}, {"measurement": "GI50", "setting": "[7]", "result": "39.1 µM (inactive)"}, {"measurement": "GI50", "setting": "[8]", "result": "17.2 µM (inactive)"}, {"measurement": "GI50", "setting": "[9]", "result": 16.7, "unit": "µM"}, {"measurement": "GI50", "setting": "[10]", "result": "17.7 µM (inactive)"}, {"measurement": "GI50", "setting": "[53]", "result": "42.6 µM (inactive)"}, {"measurement": "GI50", "setting": "[11]", "result": "20.2 µM (inactive)"}, {"measurement": "GI50", "setting": "[12]", "result": "18.7 µM (inactive)"}, {"measurement": "GI50", "setting": "[13]", "result": "34.4 µM (inactive)"}, {"measurement": "GI50", "setting": "[54]", "result": "15.7 µM (inactive)"}, {"measurement": "GI50", "setting": "[14]", "result": "23.1 µM (inactive)"}, {"measurement": "GI50", "setting": "[55]", "result": "21.5 µM (inactive)"}, {"measurement": "GI50", "setting": "[15]", "result": "23.7 µM (inactive)"}, {"measurement": "GI50", "setting": "[16]", "result": "21.7 µM (inactive)"}, {"measurement": "GI50", "setting": "[17]", "result": "26 µM (inactive)"}, {"measurement": "GI50", "setting": "[18]", "result": "20.9 µM (inactive)"}, {"measurement": "GI50", "setting": "[19]", "result": "19.2 µM (inactive)"}, {"measurement": "GI50", "setting": "[56]", "result": "13.4 µM (inactive)"}, {"measurement": "GI50", "setting": "[57]", "result": "30.1 µM (inactive)"}, {"measurement": "GI50", "setting": "[24]", "result": "21.1 µM (inactive)"}, {"measurement": "GI50", "setting": "[25]", "result": "41.6 µM (inactive)"}, {"measurement": "GI50", "setting": "[26]", "result": "24.4 µM (inactive)"}, {"measurement": "GI50", "setting": "[27]", "result": "20.8 µM (inactive)"}, {"measurement": "GI50", "setting": "[28]", "result": "25 µM (inactive)"}, {"measurement": "GI50", "setting": "[29]", "result": "25.1 µM (inactive)"}, {"measurement": "GI50", "setting": "[30]", "result": "14.9 µM (inactive)"}, {"measurement": "GI50", "setting": "[31]", "result": "26.8 µM (inactive)"}, {"measurement": "GI50", "setting": "[32]", "result": "19.9 µM (inactive)"}, {"measurement": "GI50", "setting": "[33]", "result": "31.8 µM (inactive)"}, {"measurement": "GI50", "setting": "[34]", "result": "42.8 µM (inactive)"}, {"measurement": "GI50", "setting": "[35]", "result": "27.5 µM (inactive)"}, {"measurement": "GI50", "setting": "[36]", "result": "23.1 µM (inactive)"}, {"measurement": "GI50", "setting": "[37]", "result": "13.9 µM (inactive)"}, {"measurement": "GI50", "setting": "[58]", "result": "41 µM (inactive)"}, {"measurement": "GI50", "setting": "[38]", "result": "24.4 µM (inactive)"}, {"measurement": "GI50", "setting": "[39]", "result": "43.7 µM (inactive)"}, {"measurement": "GI50", "setting": "[40]", "result": "25.3 µM (inactive)"}, {"measurement": "GI50", "setting": "[42]", "result": "31.8 µM (inactive)"}, {"measurement": "GI50", "setting": "[43]", "result": "12.2 µM (inactive)"}, {"measurement": "GI50", "setting": "[44]", "result": "47 µM (inactive)"}, {"measurement": "GI50", "setting": "[45]", "result": "31.8 µM (inactive)"}, {"measurement": "GI50", "setting": "[46]", "result": "19.6 µM (inactive)"}, {"measurement": "GI50", "setting": "[47]", "result": "15.4 µM (inactive)"}, {"measurement": "GI50", "setting": "[48]", "result": "26.1 µM (inactive)"}]}]}
